For this test, the system named is BHK cells expressing JUNO co-incubated with capacitated mouse sperm. In words: Sperm-to-BHK fusion and multinucleation. Format: cell-based, hamster. Particulars: JUNO-transfected BHK cells + mouse sperm. On the procedure: In this study, the present inventors used BHK cells (Cat #CCL-10; ATCC, RRID: CVCL_1915) which were grown and maintained in DMEM containing 10% FBS. Cells were cultured at 37° C. in 5% CO2. Plasmids were transfected into cells using 2 μl jetPRIME (PolyPlus-transfection) per μg of DNA in 100 μl of reaction buffer for every ml of medium.
Sperm were recovered by incising the cauda epididymis, obtained from adult male mice, in 300 μl of mHTF medium (Kito et al. 2004) supplemented with 4 mg/ml of BSA. The sperm were diluted in fresh medium to a concentration of 5×10^6 cells/ml and incubated for 90 min at 37° C. and 5% CO2 to induce capacitation.
BHK cells were grown on 24-well glass bottom tissue-culture plates. 24 h after plating, cells were transfected with 0.25 μg pcDNA 3.1 -EGFP-MBD-nls plasmids and 0.5 μg of either pCI::H2B-RFP or pCI::JUNO::H2B-RFP. […] Multinucleation percentage was determined as the ratio between the number of nuclei in multinucleated cells (NuM) and the total number of nuclei fluorescent cells (NuF), as follows: % of multinucleation=(NuM/NuF)×100. 500 nuclei (NuF) were counted in each independent repetition (experimental point). In some cases, the number of sperm fused was determined by evaluating the transfer of EGFP-MBD-nls signal from the BHK cell to the sperm nuclei (number of fused sperm/500 BHK cells). […]

In the case of `C[C@@H]1C[C@@H]([C@H](O)CC2CC(=O)NC(=O)C2)C(=O)[C@@H](C)C1` [cycloheximide], for the setting “4 h, 200 μg/ml cycloheximide vs control”, the “levels of multinucleation (% of multinucleation)” value is “no differences”. On to `O=c1[nH]c(=O)n([C@H]2C[C@H](O)[C@@H](CO)O2)cc1F` [FdUdr, 5-fluoro-2′-deoxyuridine], for which the “multinucleation (% of multinucleation)” value (20 μM FdUdr) was “does not inhibit”.

The values above are taken from patent US20260133182A1, “METHOD OF DETERMINING FUSOGENIC POTENTIAL OF SPERM AND USE THEREOF IN ASSISTED FERTILIZATION AND DRUG SCREENING” (Technion Research & Development Foundation Limited, priority 2023, published 2026).
